Source: ChEMBL document CHEMBL4118122, “Identification and biological evaluation of thiazole-based inverse agonists of RORγt” (Bioorg Med Chem Lett, 2018)

How the values were obtained:
[1] = molecular target: Mitogen-activated protein kinase 13 (Homo sapiens) (UniProt O15264); assay: Inhibition of recombinant full length His-tagged human p38delta expressed in baculovirus expression system at 10 uM in presence of ATP relative to control
[2] = molecular target: T1, PXR (NR1I2) (Homo sapiens, UniProt O75469); assay: […] at PXR LBD (unknown origin) expressed in HEK293 cells […] at 10 uM after 16 hrs by luciferase reporter gene assay relative to rifampicin; type: ADME, cell-based; settings: HEK293 cells expressing PXR LBD, read-out: Efficacy
T1 sequence (O75469 whole entry): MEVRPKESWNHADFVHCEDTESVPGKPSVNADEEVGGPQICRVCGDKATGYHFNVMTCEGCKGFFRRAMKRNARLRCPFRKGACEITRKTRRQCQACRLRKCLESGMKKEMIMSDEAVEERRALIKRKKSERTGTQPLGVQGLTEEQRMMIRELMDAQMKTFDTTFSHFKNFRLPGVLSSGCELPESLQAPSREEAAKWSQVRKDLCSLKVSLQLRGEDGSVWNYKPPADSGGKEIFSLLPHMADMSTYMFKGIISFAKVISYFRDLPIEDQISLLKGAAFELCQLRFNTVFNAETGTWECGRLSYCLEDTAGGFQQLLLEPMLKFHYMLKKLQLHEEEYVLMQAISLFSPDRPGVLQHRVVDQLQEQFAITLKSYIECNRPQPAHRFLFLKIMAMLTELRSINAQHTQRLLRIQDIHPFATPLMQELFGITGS

[3] = molecular target: Calcium/calmodulin-dependent protein kinase type II subunit alpha (Homo sapiens) (UniProt Q9UQM7); assay: Inhibition of CamK2alpha (unknown origin) at 10 uM in presence of ATP relative to control
[4] = molecular target: Sodium-dependent dopamine transporter (Homo sapiens) (UniProt Q01959); assay: Displacement of [3H][…] from recombinant human dopamine transporter at 1 uM after 120 mins by scintillation counting analysis relative to control
[5] = molecular target: Proto-oncogene tyrosine-protein kinase Src (Homo sapiens) (UniProt P12931); assay: Inhibition of recombinant full length C-terminal His-tagged human Src cytoplasmic domain expressed in baculovirus expression system at 10 uM in presence of ATP relative to control
[6] = molecular target: Vasoactive intestinal polypeptide receptor 1 (Homo sapiens, UniProt P32241); assay: Displacement of [125I]VIP from human recombinant VPAC1 receptor after 60 mins by scintillation counting analysis
[7] = molecular target: Type-1 angiotensin II receptor (Homo sapiens) (UniProt P30556); assay: Displacement of [125I][Sar1,Ile8]-AT-II from human recombinant AT1 receptor at 10 uM after 120 mins by scintillation counting analysis relative to control
[8] = molecular target: Glycogen synthase kinase-3 beta (Homo sapiens) (UniProt P49841); assay: Inhibition of recombinant full length human His-tagged GSK3beta expressed in baculovirus expression system at 10 uM in presence of ATP relative to control
[9] = molecular target: Tyrosine-protein kinase JAK3 (Homo sapiens) (UniProt P52333); assay: Inhibition of recombinant GST-tagged human JAK3 catalytic domain (781 to 1124 residues) expressed in baculovirus expression system at 10 uM in presence of ATP relative to control
[10] = molecular target: Neuropeptide Y receptor type 1 (Homo sapiens) (UniProt P25929); assay: Displacement of [125I]peptide YY from human Y1 receptor at 1 uM after 120 mins by scintillation counting analysis relative to control
[11] = molecular target: Mu-type opioid receptor (Homo sapiens, UniProt P35372); assay: Displacement of [3H]DAMGO from human recombinant mu receptor at 1 uM after 120 mins by scintillation counting analysis relative to control
[12] = molecular target: Substance-K receptor (Homo sapiens) (UniProt P21452); assay: Displacement of [125I]NKA from human recombinant NK2 receptor at 10 uM after 60 mins by scintillation counting analysis relative to control
[13] = species on record: Rattus norvegicus; assay: Binding affinity to rat GABA receptor at 10 uM after 60 mins by radioligand binding assay relative to control
[14] = molecular target: Ribosomal protein S6 kinase alpha-2 (Homo sapiens) (UniProt Q15349); assay: Inhibition of recombinant full length GST-tagged human RSK3 expressed in insect cells at 10 uM in presence of ATP relative to control
[15] = molecular target: D(1A) dopamine receptor (Homo sapiens, UniProt P21728); assay: Displacement of [3H]-SCH 23390 from human recombinant dopamine D1 receptor at 10 uM after 60 mins by scintillation counting analysis relative to control
[16] = molecular target: Muscarinic acetylcholine receptor M1 (Homo sapiens) (UniProt P11229); assay: Displacement of […] from human recombinant M1 receptor at 10 uM after 60 mins by scintillation counting analysis relative to control
[17] = molecular target: Neurotensin receptor type 1 (Homo sapiens, UniProt P30989); assay: Displacement of [125I]Tyr3-neurotensin from human recombinant NTS1 receptor at 10 uM after 120 mins by scintillation counting analysis relative to control
[18] = molecular target: Proto-oncogene tyrosine-protein kinase receptor Ret (Homo sapiens) (UniProt P07949); assay: Inhibition of recombinant GST-tagged human RET cytoplasmic domain (658 to 1114 residues) expressed in baculovirus expression system at 10 uM in presence of ATP relative to control
[19] = molecular target: T2, Nuclear receptor ROR-gamma (Homo sapiens, UniProt P51449); assay: Binding affinity to recombinant human RORgamma LBD (237 to 497 residues) expressed in Escherichia coli BL21 (DE3) GOLD by 1,8-ANS dye-based thermofluor assay
T2 sequence (P51449 whole entry): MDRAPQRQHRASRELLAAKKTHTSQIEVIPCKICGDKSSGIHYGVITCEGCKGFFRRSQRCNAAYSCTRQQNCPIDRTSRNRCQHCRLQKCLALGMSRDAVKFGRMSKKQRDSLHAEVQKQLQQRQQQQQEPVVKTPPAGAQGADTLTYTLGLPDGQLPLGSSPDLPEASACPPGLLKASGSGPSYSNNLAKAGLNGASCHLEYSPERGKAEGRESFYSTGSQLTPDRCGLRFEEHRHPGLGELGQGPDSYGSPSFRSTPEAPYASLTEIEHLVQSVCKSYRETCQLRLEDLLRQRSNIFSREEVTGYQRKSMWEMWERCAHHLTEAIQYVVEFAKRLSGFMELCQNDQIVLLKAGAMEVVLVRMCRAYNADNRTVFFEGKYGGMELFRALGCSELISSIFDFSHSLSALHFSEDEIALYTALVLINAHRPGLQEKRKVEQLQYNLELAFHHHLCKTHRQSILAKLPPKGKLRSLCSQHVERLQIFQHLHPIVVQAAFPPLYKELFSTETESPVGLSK

[20] = molecular target: Adrenergic receptor alpha-1 (Rattus norvegicus, UniProt P15823+P23944+P43140); assay: Displacement of [3H]-prazosin from rat alpha1 adrenoceptor after 60 mins by scintillation counting analysis; type: protein assay
[21] = Thermodynamic solubility of the compound in 30 mM phosphate buffer at 10 mM at pH 2 after 2 to 5 days by UV-HPLC analysis; type: physicochemical; settings: read-out: Therm_solubility

Chain of Proto-oncogene tyrosine-protein kinase receptor Ret (Homo sapiens) (P07949 whole entry, the tested form may be a part): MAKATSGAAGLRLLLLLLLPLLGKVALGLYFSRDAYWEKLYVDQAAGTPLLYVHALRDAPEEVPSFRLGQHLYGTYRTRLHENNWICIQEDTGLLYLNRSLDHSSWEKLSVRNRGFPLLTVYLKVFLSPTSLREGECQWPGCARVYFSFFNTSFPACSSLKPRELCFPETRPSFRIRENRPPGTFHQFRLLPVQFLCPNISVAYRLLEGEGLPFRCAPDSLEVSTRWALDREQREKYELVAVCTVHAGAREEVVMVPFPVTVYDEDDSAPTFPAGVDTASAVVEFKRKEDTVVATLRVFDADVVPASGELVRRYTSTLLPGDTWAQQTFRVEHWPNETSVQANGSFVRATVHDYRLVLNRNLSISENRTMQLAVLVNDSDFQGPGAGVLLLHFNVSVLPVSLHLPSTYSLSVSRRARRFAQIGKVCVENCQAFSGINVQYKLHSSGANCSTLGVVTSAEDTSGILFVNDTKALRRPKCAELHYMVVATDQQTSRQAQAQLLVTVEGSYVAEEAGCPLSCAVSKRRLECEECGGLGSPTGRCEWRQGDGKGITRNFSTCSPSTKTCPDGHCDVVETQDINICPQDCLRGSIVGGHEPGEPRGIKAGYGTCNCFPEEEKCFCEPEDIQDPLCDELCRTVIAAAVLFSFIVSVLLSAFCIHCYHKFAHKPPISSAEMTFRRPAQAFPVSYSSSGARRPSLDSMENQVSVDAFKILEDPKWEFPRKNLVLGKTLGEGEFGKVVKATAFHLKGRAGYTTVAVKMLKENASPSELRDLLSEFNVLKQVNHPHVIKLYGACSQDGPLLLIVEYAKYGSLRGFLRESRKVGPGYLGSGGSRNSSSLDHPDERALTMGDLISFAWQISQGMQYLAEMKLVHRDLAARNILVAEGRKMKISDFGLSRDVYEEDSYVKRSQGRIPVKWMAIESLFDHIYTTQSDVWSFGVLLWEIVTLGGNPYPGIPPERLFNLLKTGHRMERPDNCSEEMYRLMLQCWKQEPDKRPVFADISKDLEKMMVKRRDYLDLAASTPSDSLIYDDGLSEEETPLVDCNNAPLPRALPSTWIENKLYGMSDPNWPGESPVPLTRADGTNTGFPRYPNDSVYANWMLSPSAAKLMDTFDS
Chain of Calcium/calmodulin-dependent protein kinase type II subunit alpha (Homo sapiens) (Q9UQM7 whole entry): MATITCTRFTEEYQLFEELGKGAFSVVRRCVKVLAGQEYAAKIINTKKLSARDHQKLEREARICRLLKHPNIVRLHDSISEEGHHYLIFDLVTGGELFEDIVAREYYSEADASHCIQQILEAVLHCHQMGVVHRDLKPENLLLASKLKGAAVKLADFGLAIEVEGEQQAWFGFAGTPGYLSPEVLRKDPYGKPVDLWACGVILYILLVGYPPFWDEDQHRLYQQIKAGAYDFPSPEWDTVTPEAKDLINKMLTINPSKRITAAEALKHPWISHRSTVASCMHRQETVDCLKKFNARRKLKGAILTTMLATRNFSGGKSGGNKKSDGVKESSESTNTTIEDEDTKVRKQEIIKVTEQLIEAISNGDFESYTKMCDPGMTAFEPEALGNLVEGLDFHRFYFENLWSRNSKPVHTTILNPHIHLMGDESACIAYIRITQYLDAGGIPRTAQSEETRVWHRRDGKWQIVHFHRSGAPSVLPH
Chain of Muscarinic acetylcholine receptor M1 (Homo sapiens) (P11229 whole entry): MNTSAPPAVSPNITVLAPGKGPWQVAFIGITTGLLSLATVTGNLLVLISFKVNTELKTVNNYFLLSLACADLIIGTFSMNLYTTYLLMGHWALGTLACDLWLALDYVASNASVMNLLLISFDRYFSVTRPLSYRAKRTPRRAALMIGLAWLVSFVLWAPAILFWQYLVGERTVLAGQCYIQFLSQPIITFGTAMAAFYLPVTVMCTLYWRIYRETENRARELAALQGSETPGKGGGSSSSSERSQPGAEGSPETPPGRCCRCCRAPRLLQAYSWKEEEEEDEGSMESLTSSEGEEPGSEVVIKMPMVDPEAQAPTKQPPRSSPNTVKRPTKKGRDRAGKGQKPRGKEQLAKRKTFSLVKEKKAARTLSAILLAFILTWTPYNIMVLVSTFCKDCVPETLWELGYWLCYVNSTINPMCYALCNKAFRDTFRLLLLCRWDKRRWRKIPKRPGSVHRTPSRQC
Chain of Glycogen synthase kinase-3 beta (Homo sapiens) (P49841 whole entry, looked up, the tested form may be a part): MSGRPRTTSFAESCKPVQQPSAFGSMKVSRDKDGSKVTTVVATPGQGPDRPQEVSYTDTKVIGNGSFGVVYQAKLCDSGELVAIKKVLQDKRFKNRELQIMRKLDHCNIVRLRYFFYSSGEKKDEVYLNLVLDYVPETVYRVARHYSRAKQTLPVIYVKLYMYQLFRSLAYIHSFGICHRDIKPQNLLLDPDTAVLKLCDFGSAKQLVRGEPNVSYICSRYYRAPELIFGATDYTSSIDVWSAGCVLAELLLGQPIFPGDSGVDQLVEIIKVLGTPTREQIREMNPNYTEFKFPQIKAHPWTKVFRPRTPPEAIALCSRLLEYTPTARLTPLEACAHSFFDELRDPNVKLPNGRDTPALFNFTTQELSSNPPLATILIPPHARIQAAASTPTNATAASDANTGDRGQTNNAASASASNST
Chain of Mu-type opioid receptor (P35372 whole entry): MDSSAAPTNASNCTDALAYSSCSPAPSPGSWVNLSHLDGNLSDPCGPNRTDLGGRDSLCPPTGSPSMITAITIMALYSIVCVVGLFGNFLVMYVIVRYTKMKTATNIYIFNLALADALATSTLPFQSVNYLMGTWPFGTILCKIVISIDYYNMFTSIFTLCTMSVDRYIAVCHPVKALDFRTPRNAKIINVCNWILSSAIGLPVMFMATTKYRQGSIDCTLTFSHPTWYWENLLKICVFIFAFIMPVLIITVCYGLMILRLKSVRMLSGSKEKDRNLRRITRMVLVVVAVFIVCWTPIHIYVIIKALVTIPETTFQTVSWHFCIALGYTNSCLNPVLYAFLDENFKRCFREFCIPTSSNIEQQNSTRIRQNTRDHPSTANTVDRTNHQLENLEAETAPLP
Chain of Mitogen-activated protein kinase 13 (Homo sapiens) (O15264 whole entry, the tested form may be a part): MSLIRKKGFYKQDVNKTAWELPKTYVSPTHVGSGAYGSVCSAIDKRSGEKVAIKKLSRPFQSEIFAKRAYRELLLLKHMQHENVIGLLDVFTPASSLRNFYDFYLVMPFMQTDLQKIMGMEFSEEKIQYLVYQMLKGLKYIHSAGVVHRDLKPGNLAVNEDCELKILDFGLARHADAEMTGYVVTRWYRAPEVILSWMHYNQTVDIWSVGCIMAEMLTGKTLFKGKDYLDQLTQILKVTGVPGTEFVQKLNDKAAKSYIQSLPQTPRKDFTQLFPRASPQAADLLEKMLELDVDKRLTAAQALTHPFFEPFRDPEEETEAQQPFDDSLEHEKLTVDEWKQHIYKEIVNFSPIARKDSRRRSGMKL
Chain of Substance-K receptor (Homo sapiens) (P21452 whole entry): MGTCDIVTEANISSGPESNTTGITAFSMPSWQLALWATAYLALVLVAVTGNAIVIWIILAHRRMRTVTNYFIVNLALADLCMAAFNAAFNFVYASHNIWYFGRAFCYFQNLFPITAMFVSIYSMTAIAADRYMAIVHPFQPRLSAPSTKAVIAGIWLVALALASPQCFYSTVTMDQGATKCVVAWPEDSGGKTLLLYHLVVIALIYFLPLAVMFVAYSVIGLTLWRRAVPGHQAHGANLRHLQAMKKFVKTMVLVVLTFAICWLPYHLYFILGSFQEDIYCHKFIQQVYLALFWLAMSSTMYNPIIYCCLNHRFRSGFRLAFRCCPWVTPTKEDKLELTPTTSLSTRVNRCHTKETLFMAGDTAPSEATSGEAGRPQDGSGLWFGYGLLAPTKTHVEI
Chain of Type-1 angiotensin II receptor (Homo sapiens) (P30556 whole entry): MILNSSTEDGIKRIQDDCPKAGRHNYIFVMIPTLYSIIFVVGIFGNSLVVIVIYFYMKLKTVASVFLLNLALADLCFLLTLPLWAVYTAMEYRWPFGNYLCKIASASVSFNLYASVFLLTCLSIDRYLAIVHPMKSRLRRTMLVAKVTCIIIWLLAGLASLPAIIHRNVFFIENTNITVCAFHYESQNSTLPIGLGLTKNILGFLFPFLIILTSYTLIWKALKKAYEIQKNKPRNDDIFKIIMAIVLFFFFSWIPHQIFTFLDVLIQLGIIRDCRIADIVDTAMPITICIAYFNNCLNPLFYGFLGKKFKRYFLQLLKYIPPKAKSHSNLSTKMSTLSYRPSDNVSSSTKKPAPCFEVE
Chain of Neuropeptide Y receptor type 1 (Homo sapiens) (P25929 whole entry): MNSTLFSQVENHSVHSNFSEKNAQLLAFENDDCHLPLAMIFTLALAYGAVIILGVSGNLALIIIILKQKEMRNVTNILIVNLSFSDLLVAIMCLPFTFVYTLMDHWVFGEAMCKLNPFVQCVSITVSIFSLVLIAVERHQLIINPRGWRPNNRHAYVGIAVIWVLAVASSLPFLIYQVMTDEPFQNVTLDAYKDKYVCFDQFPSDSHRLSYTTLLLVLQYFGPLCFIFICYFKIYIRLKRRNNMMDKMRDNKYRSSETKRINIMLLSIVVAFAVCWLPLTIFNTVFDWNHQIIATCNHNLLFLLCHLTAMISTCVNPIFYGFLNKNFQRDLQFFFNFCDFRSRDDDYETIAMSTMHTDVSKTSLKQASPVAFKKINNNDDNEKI
Chain of Proto-oncogene tyrosine-protein kinase Src (Homo sapiens) (P12931 2-536 limits assumed): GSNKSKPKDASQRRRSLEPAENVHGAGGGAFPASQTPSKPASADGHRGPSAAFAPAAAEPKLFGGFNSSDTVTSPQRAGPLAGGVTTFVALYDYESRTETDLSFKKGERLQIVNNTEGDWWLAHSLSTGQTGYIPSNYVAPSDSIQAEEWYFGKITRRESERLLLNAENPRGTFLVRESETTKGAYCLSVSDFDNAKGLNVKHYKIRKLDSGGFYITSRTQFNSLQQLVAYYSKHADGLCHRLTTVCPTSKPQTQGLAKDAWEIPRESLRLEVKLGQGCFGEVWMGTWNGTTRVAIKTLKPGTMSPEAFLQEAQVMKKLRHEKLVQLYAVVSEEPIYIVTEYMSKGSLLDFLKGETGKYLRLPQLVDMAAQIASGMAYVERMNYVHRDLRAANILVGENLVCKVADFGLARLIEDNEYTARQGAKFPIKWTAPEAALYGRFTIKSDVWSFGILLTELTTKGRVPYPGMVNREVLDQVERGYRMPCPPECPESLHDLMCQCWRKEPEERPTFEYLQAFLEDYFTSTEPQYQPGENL

CC(C)(C)NS(=O)(=O)c1ccc(-c2sc(C(=O)N[C@H]3C[C@H](C(=O)O)C3)nc2CC2CCCCC2)c2ccccc12
inhibition [1]: -4% | Emax at 16 h, 10 µM [2]: 195% | inhibition [3]: 2% | inhibition [4]: 18% | inhibition [5]: -4% | IC50 [6]: 0.47 nM | inhibition [7]: < 10% | inhibition [8]: -3% | inhibition [9]: -3% | inhibition [10]: < 10% | inhibition [11]: < 10% | inhibition [12]: < 10% | inhibition [13]: 14% | inhibition [14]: -4% | inhibition [15]: 12% | inhibition [16]: < 10% | inhibition [17]: < 10% | inhibition [18]: -3% | Kd [19]: 0.12 nM | IC50 [20]: 0.25 nM | solubility thermodynamic at 10000 µM [21]: < 1 µM
